In PubChem BioAssay AID1408 (University of Pittsburgh Molecular Library Screening Center, 2008):

target: Serine/threonine-protein kinase D1 (Homo sapiens) (UniProt Q15139); assay: inhibition potency against human PKD1 – biochemical, fluorescence polarization, dose response (AID 1408); settings: not given
Sequence (Q15139 whole entry, looked up): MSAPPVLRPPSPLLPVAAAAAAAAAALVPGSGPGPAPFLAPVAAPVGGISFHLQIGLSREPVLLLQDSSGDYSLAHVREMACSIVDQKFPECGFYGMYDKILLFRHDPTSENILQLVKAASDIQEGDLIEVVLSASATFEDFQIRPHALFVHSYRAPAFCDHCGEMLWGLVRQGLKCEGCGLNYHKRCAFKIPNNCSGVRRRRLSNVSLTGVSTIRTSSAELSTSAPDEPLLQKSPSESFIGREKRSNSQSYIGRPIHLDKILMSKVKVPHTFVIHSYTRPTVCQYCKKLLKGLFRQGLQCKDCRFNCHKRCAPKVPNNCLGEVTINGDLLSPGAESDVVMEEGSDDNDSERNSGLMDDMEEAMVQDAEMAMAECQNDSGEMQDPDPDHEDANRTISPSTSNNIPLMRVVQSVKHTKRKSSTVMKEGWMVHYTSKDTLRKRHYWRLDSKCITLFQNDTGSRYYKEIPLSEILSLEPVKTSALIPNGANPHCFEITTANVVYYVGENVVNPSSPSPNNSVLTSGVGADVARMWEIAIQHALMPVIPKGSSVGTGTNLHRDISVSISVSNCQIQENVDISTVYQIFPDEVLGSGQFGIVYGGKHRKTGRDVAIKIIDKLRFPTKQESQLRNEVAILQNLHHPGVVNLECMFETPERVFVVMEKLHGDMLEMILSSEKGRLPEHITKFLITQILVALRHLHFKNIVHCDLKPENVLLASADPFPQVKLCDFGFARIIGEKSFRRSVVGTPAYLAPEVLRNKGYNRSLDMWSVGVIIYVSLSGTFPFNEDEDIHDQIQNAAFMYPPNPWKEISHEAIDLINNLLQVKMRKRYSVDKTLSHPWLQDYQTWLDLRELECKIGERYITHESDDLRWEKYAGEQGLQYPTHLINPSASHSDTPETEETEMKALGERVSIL

`Clc1cncc(Cl)c1N/N=C/c1ccncc1` was tested. Which IC50 did it give?
The IC50 was 9.61 µM.

How did the IC50 turn out when `C/C(=N\Nc1ncc(Cl)cc1Cl)c1ccccn1` was run?
The IC50 was 9.31 µM.

same assay, conditions: inhibition, at 50 µM, stronger effect = higher value

For `O=C1NCCCc2c1oc1ccc(O)cc21`, which inhibition is on record?
The inhibition was 101%.

`Cc1cc(NCCCN)nc(-c2ccccc2O)n1` was tested. Which inhibition did it give?
Its inhibition is 94.4%.

How did the inhibition turn out when `Cc1cc(NC(=O)CCC(=O)N(Cc2ccco2)C(C(=O)NCC2CCCO2)c2ccncc2)no1` (stereo unspecified) was run?
The inhibition was -0.875%.

How did the inhibition turn out when `Cn1cccc1C(=O)NC(=O)COC(=O)c1cc(S(=O)(=O)N2CCCCC2)ccc1Cl` was run?
Its inhibition is -3.91%.

With `O=C(Nc1ccccc1C(=O)N1CCCC1)C1COc2ccccc2O1` (stereo unspecified) as the compound, how does the inhibition read?
Its inhibition is 1.87%.

How did the inhibition turn out when `CCOC(=O)c1sc(=NC(=O)CCS(=O)(=O)c2ccccc2)n(C)c1C` was run?
The inhibition was -2.41%.

`CS(=O)(=O)N1CCN(c2ccccc2NC(=O)c2ccc(Br)o2)CC1` was tested. Which inhibition did it give?
Its inhibition is 15.2%.

How did the inhibition turn out when `NC(=O)c1cn(C2OC(CO)C(O)C2O)c2ncnc(N)c12` (stereo unspecified) was run?
The inhibition was 102%.

`O=C(O)c1cc(C(=O)C2CCCCC2)c[nH]1` was tested. Which inhibition did it give?
The inhibition was 3.08%.

How did the inhibition turn out when `O=[N+]([O-])c1ccc(Nc2c3ccccc3nc3ccccc23)cc1` was run?
Its inhibition is -1.2%.

For `Nc1nc2ccc([N+](=O)[O-])c(N)c2s1`, which inhibition is on record?
Its inhibition is 95.9%.

How did the inhibition turn out when `CC1Cc2ccccc2N1c1ncnc(N)c1[N+](=O)[O-]` (stereo unspecified) was run?
The inhibition was 76.8%.

With `NC(N)=NC(=O)c1nc(Cl)c(N)nc1N` as the compound, how does the inhibition read?
Its inhibition is 96.6%.

For `O=C1CSCN1c1cc(Cl)ccc1Cl`, which inhibition is on record?
The inhibition was 1.32%.

With `CSc1ccccc1C(=O)NCc1ccc(F)cc1` as the compound, how does the inhibition read?
Its inhibition is 1.94%.

For `O=C(CSc1ccc2nnc(-c3cccnc3)n2n1)c1ccccc1`, which inhibition is on record?
The inhibition was -0.442%.

With `COc1ccc(CNC(=O)C2Cc3ccccc3CN2C(=O)c2ccco2)cc1` (stereo unspecified) as the compound, how does the inhibition read?
The inhibition was 9.09%.

With `Cc1c(C#N)c(N)nc(Cl)c1C#N` as the compound, how does the inhibition read?
The inhibition was 5.41%.

Which inhibition does the source give for `O=C(NNC1=Nc2cccc3cccc1c23)c1ccc(Br)cc1` here?
The inhibition was -3.67%.

`CCCc1cc(=O)[nH]c(SCCCCN2C(=O)c3ccccc3C2=O)n1` was tested. Which inhibition did it give?
The inhibition was 0.534%.

With `CCC1=NNc2cccc3c(OC)ccc1c23` as the compound, how does the inhibition read?
Its inhibition is 67%.

Which inhibition does the source give for `COc1ccc(Cn2c(=O)[nH]c3cc(C(=O)NC4CCCC4)ccc3c2=O)cc1` here?
The inhibition was 14.8%.

How did the inhibition turn out when `Clc1cncc(Cl)c1N/N=C/c1ccncc1` was run?
The inhibition was 83.8%.

For `C/C(=N\Nc1ncc(Cl)cc1Cl)c1ccccn1`, which inhibition is on record?
The inhibition was 65.6%.

How did the inhibition turn out when `CCC(=O)Nc1c2c(nn1-c1ccccc1C)CSC2` was run?
The inhibition was -1.23%.

For `COC(=O)c1c(NC(=O)C2C3CCC(C3)C2C(=O)O)sc2c1CCCCC2` (stereo unspecified), which inhibition is on record?
Its inhibition is 7.89%.

How did the inhibition turn out when `O=C(CSc1ccncc1)Nc1ccc2ccccc2c1` was run?
Its inhibition is -4.61%.

Which inhibition does the source give for `CC(=O)Oc1cc(OC(C)=O)c2c(C)cc(=O)oc2c1` here?
The inhibition was 29%.

For `O=C(Nc1ccc(CN2CCOCC2)cc1)c1ccc(-c2cccc(Cl)c2)o1`, which inhibition is on record?
The inhibition was 96.2%.
